# What was measured:
# Type in all cases: cell-based
# [1] = tested on: S. aureus, E. faecalis and S. pneumoniae; test: In vitro antibacterial action of haloaryl derivatives on standard and resistent test microorganisms; conditions: comparison within the series
# Source text: (§1) In vitro action of the novel compounds was investigated on a series of standard and resistent test microorganisms. […] In N′-(C1-C6)haloalkylcarbamoyl derivatives similar traits were observed.
# [2] = tested on: test microorganisms sensitive to erythromycin; test: In vitro antibacterial activity against erythromycin-sensitive test microorganisms
# Source text: as §1
# resistent strains = test: In vitro antibacterial activity against resistent strains
# Source text: as §1
smiles,measurement,setting,value
"CC[C@H]1OC(=O)[C@H](C)[C@@H](O[C@H]2C[C@@](C)(OC)[C@@H](O)[C@H](C)O2)[C@H](C)[C@@H](O[C@@H]2O[C@H](C)C[C@H](N(C)C)[C@H]2O)[C@](C)(O)C[C@@H](C)CN(C(=S)Nc2cccc(C(F)(F)F)c2)[C@H](C)[C@@H](O)[C@]1(C)O [Example 21, 9-deoxo-9a-N-{N′-[(3-trifluoromethyl-phenyl)thiocarbamoyl]}-9a-aza-9a-homoerythromycin A]",antibacterial in vitro activity (effectiveness),[1],the most active one
same,activity against test microorganisms sensitive to erythromycin,[2],activity against test microorganisms sensitive to erythromycin
same,activity against resistent strains,resistent strains,showed an activity against resistent strains

# Reference: patent US6872707B1, “Halo derivatives of 9-deoxo-9a-aza-homerythromycin A” (PLIVA farmaceutska industrija dionicko drustvo, priority 1999, dated 2005)
